The target in experiment [1] is T1, hRIPK1 (aa 1-375) fusion protein (Homo sapiens, UniProt Q13546).
T1 construct: hRIPK1 (aa 1-375) fusion protein
T1 sequence (Q13546 1-375): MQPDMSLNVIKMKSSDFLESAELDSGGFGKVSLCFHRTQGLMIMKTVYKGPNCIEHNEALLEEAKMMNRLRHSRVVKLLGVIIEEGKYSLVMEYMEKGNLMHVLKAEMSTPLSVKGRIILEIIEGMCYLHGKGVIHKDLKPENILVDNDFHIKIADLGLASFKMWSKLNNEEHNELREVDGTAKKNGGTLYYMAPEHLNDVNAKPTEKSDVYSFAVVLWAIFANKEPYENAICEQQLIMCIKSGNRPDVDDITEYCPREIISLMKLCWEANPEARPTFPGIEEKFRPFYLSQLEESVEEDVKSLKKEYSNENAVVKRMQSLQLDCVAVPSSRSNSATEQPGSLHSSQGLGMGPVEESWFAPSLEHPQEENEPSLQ
Briefly: ADP-Glo kinase assay: catalytic activity of RIPK1 (autophosphorylation, conversion of ATP to ADP). The format is biochemical. The method, boiled down:
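The readout was ADP-Glo luminescence after a 240 min rt autophosphorylation reaction with 50 μM ATP, following 30 min preincubation of 3.6 μg/ml hRIPK1 (aa 1-375) fusion with compound at 33300-1.69 nM final in 1% DMSO. Values came from Levenberg-Marquardt nonlinear fits.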
(In ADP-Glo the light output rises with the ADP produced.)

Experiment [2] has as its system U937 cells. The experiment in a line: Cellular assay in U937 cells: activity of RIPK1 inhibitors on TNFα/zVAD.fmk-induced cell death (necroptosis), CellTiter 96 AQueous (MTS) readout. The format is cell-based. The conditions noted are these: Homo sapiens, U-937. The method, boiled down:
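Necroptosis was measured by viable-cell MTS reduction (4 h, absorbance 490 nm) after overnight (18–24 h) 37° C culture. Cell suspensions of U937 cells carried TNFα (100 ng/ml) plus zVAD.fmk (50 μM) before compound was added. A 10-point curve (10 μM–0.26 nM or 1 μM–0.07 nM) was run in duplicate, normalised to the control lacking TNFα/zVAD.fmk.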

These results are taken from patent US20260158009A1 (GENZYME CORPORATION, priority 2023, published 2026).

For orientation: IC50 means the concentration at which inhibition is half-maximal. A higher IC50 goes with lower potency.

The structures appear in SMILES notation.

For the compound `Cc1cc(C)n(-c2cc(C[C@H]3CC[C@H](C(=O)N4OCC[C@H]4c4cc(F)cc(F)c4)CC3)ncn2)n1` [compound 125, trans-[(3S)-3-(3,5-difluorophenyl)isoxazolidin-2-yl]-[4-[[6-(3,5-dimethylpyrazol-1-yl)pyrimidin-4-yl]methyl]cyclohexyl]methanone], the figures for the IC50 in experiment [1] and in experiment [2] were 9 nM and 16 nM, respectively.

In the case of `Cc1ccc(C[C@H]2CC[C@H](C(=O)N3OCC[C@H]3c3cnccn3)CC2)nn1` [compound 357, trans-[4-[(6-methylpyridazin-3-yl)methyl]cyclohexyl]-[(3S)-3-pyrazin-2-ylisoxazolidin-2-yl]methanone], the IC50 turned out to be 138 nM in experiment [1] and 531 nM in experiment [2].

On to `Cc1cnc([C@@H]2CCON2C(=O)[C@H]2CC[C@H](Cc3cc(C)ncc3Cl)CC2)cn1` [compound 385, trans-[4-[(5-chloro-2-methylpyridin-4-yl)methyl]cyclohexyl]-[(3S)-3-(5-methylpyrazin-2-yl)-1,2-oxazolidin-2-yl]methanone], for which the IC50 was found to be 24 nM in experiment [1] and 3 nM in experiment [2].

In the case of `Cc1cn2cc(C[C@H]3CC[C@H](C(=O)N4OCC[C@H]4c4cc(F)cc(C#N)c4)CC3)ccc2n1` [compound 225, trans-3-fluoro-5-[(3S)-2-[4-[(2-methylimidazo[1,2-a]pyridin-6-yl)methyl]cyclohexanecarbonyl]isoxazolidin-3-yl]benzonitrile], the IC50 stood at 19 nM in experiment [1] and 7 nM in experiment [2].

As to `Cc1ncc(F)cc1C[C@H]1CC[C@H](C(=O)N2OCC[C@H]2c2cnccn2)CC1` [compound 180, trans-[4-[(5-fluoro-2-methyl-3-pyridyl)methyl]cyclohexyl]-[(3S)-3-pyrazin-2-ylisoxazolidin-2-yl]methanone], the IC50 in experiment [1] came to 32 nM; in experiment [2] it was 11 nM.

As for `N#Cc1cc(F)cc([C@@H]2CCON2C(=O)[C@H]2CC[C@H](Cn3cnc4cc(C#N)c(F)cc43)CC2)c1` [compound 11, trans-1-((4-((S)-3-(3-cyano-5-fluorophenyl)isoxazolidine-2-carbonyl)cyclohexyl)methyl)-6-fluoro-1H-benzo[d]imidazole-5-carbonitrile], the IC50 was 59 nM in experiment [1] and 38 nM in experiment [2].

In the case of `Cn1ncc2ncc(C[C@H]3CC[C@H](C(=O)N4OCC[C@H]4c4cc(F)cc(C#N)c4)CC3)cc21` [compound 296, trans-3-fluoro-5-[(3S)-2-[4-[(1-methylpyrazolo[4,3-b]pyridin-6-yl)methyl]cyclohexanecarbonyl]isoxazolidin-3-yl]benzonitrile], the IC50 in experiment [1] turned out to be 5 nM; in experiment [2], 2 nM.

For the compound `N#Cc1cc(F)cc([C@@H]2CCON2C(=O)[C@H]2CC[C@H](Cn3ccc4c(F)cc(C#N)cc43)CC2)c1` [compound 46, trans-1-((4-((S)-3-(3-cyano-5-fluorophenyl)isoxazolidine-2-carbonyl)cyclohexyl)methyl)-4-fluoro-1H-indole-6-carbonitrile], the IC50 in experiment [1] was 13 nM; in experiment [2], 6 nM.

As for `Cn1cc(C[C@H]2CC[C@H](C(=O)N3OCC[C@H]3c3cc(F)cc(C#N)c3)CC2)cn1` [compound 150, trans-3-fluoro-5-[(3S)-2-[4-[(1-methylpyrazol-4-yl)methyl]cyclohexanecarbonyl]isoxazolidin-3-yl]benzonitrile], the results for the IC50 in experiment [1] and in experiment [2] were 21 nM and 25 nM, respectively.

For the compound `Cc1cc2nnc(C)n2cc1C[C@H]1CC[C@H](C(=O)N2OCC[C@H]2c2cccc(F)c2)CC1` [compound 317, trans-[4-[(3,7-dimethyl-[1,2,4]triazolo[4,3-a]pyridin-6-yl)methyl]cyclohexyl]-[(3S)-3-(3-fluorophenyl)isoxazolidin-2-yl]methanone], the figures for the IC50 in experiment [1] and in experiment [2] were 7 nM and 2 nM, respectively.

As for `N#Cc1cc2ncn(C[C@H]3CC[C@H](C(=O)N4OCC[C@H]4c4cnccn4)CC3)c2cc1F` [compound 97, trans-6-fluoro-1-((4-((S)-3-(pyrazin-2-yl)isoxazolidine-2-carbonyl)cyclohexyl)methyl)-1H-benzo[d]imidazole-5-carbonitrile], the IC50 in experiment [1] was determined as 78 nM; in experiment [2] it was 214 nM.

For the compound `COCCOc1cnc2ccn(C[C@H]3CC[C@H](C(=O)N4OCC[C@H]4c4cc(F)cc(C#N)c4)CC3)c2c1` [compound 149, trans-3-fluoro-5-[(3S)-2-[4-[[6-(2-methoxyethoxy)pyrrolo[3,2-b]pyridin-1-yl]methyl]cyclohexanecarbonyl]isoxazolidin-3-yl]benzonitrile], the IC50 is 9 nM in experiment [1] and 8 nM in experiment [2].

Regarding `COc1cc(C[C@H]2CC[C@H](C(=O)N3OCC[C@H]3c3cncc(F)c3)CC2)cn2nc(C)nc12` [compound 345, trans-[(3S)-3-(5-fluoropyridin-3-yl)-1,2-oxazolidin-2-yl]-[4-[(8-methoxy-2-methyl-[1,2,4]triazolo[1,5-a]pyridin-6-yl)methyl]cyclohexyl]methanone], the IC50 in experiment [1] was found to be 26 nM; in experiment [2], 8 nM.

For the compound `Cc1ccc(C[C@H]2CC[C@H](C(=O)N3OCC[C@H]3c3cc(F)cc(C#N)c3)CC2)cc1C(N)=O` [compound 133, trans-5-[[4-[(3S)-3-(3-cyano-5-fluoro-phenyl)isoxazolidine-2-carbonyl]cyclohexyl]methyl]-2-methyl-benzamide], the IC50 in experiment [1] and in experiment [2] was 8 nM throughout.

Regarding `N#Cc1cc(F)cc([C@@H]2CCON2C(=O)[C@H]2CC[C@H](Cn3ccc4ncc(F)cc43)CC2)c1` [compound 93, trans-3-fluoro-5-((S)-2-(4-((6-fluoro-1H-pyrrolo[3,2-b]pyridin-1-yl)methyl)cyclohexane-1-carbonyl)isoxazolidin-3-yl)benzonitrile], the values for the IC50 in experiment [1] and in experiment [2] were 20 nM and 2 nM, respectively.

On to `N#Cc1ccc2cnn(C[C@H]3CC[C@H](C(=O)N4OCC[C@H]4c4ccccn4)CC3)c2c1` [compound 215, trans-1-[[4-[(3S)-3-(2-pyridyl)isoxazolidine-2-carbonyl]cyclohexyl]methyl]indazole-6-carbonitrile], for which the IC50 in experiment [1] came out at 20 nM; in experiment [2] it was 7 nM.

In the case of `Cc1ccc([C@@H]2CCON2C(=O)[C@H]2CC[C@H](Cc3ccc(C4(O)COC4)cc3)CC2)cn1` [compound 348, trans-5 [4-[[4-(3-hydroxyoxetan-3-yl)phenyl]methyl]cyclohexyl]-[(3S)-3-(6-methylpyridin-3-yl)-1,2-oxazolidin-2-yl]methanone], the values for the IC50 in experiment [1] and in experiment [2] were 37 nM and 105 nM, respectively.

In the case of `Cc1nn(C[C@H]2CC[C@H](C(=O)N3OCC[C@H]3c3cc(F)cc(F)c3)CC2)c2cc(C(N)=O)cc(F)c12` [compound 103, trans-1-((4-((S)-3-(3,5-difluorophenyl)isoxazolidine-2-carbonyl)cyclohexyl)methyl)-4-fluoro-3-methyl-1H-indazole-6-carboxamide], the IC50 was 23 nM in experiment [1] and 22 nM in experiment [2].

On to `Cc1nc2c(F)cc(C[C@H]3CC[C@H](C(=O)N4OCC[C@H]4c4cnc(C)c(F)c4)CC3)cn2n1` [compound 327, trans-[(3S)-3-(5-fluoro-6-methyl-3-pyridyl)isoxazolidin-2-yl]-[4-[(8-fluoro-2-methyl-[1,2,4]triazolo[1,5-a]pyridin-6-yl)methyl]cyclohexyl]methanone], for which the IC50 in experiment [1] and in experiment [2] was 48 nM throughout.

On to `Cc1ccc([C@@H]2CCON2C(=O)[C@H]2CC[C@H](Cc3cnn4cc(C)nc4c3)CC2)cn1` [compound 353, trans-[4-[(2-methylimidazo[1,2-b]pyridazin-7-yl)methyl]cyclohexyl]-[(3S)-3-(6-methylpyridin-3-yl)-1,2-oxazolidin-2-yl]methanone], for which the IC50 was 87 nM in experiment [1] and 112 nM in experiment [2].

As to `Cn1nccc1C[C@H]1CC[C@H](C(=O)N2OCC[C@H]2c2ccc(F)cc2)CC1` [compound 306, trans-[(3S)-3-(4-fluorophenyl)isoxazolidin-2-yl]-[4-[(2-methylpyrazol-3-yl)methyl]cyclohexyl]methanone], the IC50 was found to be 17 nM in experiment [1] and 25 nM in experiment [2].

For the compound `Cc1ncc(F)cc1C[C@H]1CC[C@H](C(=O)N2OCC[C@H]2c2cncc(F)c2)CC1` [compound 178, trans-[4-[(5-fluoro-2-methyl-3-pyridyl)methyl]cyclohexyl]-[(3S)-3-(5-fluoro-3-pyridyl)isoxazolidin-2-yl]methanone], the IC50 is 38 nM in experiment [1] and 6 nM in experiment [2].

With `O=C([C@H]1CC[C@H](Cn2cnc3ccccc32)CC1)N1OCC[C@H]1c1cc(F)cc(F)c1` [compound 8, trans-(4-((1H-benzo[d]imidazol-1-yl)methyl)cyclohexyl)((S)-3-(3,5-difluorophenyl)isoxazolidin-2-yl)methanone], the half-maximal inhibitory concentration (IC50) in experiment [1] is 19 nM; in experiment [2], 6 nM.
